In paper PMC6009956, “Design, synthesis and biological activity of N^4-phenylsubstituted-7H-pyrrolo[2,3-d]pyrimidin-4-amines as dual inhibitors of aurora kinase A and epidermal growth factor receptor kinase” (Journal of Enzyme Inhibition and Medicinal Chemistry, 2017):
Like-named read-outs stand apart in the source and are kept apart here.

Tests used:
aurora A kinase (AURKA) = biological target: T1, aurora A kinase (AURKA) (Homo sapiens, UniProt O14965); test: ADP-Glo kinase assay, Aurora A; format: biochemical
T1 construct: purchased BPS Bioscience (assay run externally by the vendor)
T1 sequence (O14965 1-403): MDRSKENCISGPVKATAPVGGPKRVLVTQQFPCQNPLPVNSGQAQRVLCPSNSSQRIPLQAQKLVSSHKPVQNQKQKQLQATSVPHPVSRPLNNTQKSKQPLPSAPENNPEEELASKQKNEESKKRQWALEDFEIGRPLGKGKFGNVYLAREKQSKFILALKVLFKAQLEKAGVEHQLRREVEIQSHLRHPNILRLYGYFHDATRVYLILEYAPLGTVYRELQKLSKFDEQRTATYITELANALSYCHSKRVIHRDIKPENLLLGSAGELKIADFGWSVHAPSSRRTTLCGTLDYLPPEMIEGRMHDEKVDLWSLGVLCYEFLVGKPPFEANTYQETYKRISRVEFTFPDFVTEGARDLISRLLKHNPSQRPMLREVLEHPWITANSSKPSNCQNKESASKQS

SAS cells = test: Cell killing, PI staining and FACS, SAS; format: cell-based; settings: 100 µM, 72 h
Method: (§1) FADU, BHY, SAS and CAL cell lines were obtained from ATCC-LGC and were cultured in DMEM (Invitrogen, Germany) supplemented with 10% of heat activated bovine serum (FBS, PAA, Germany), 1% of glutamine, 1% of penicillin-streptomycin (Invitrogen, Germany). To measure proliferation, SCCHN cells were split, reseeded (5 × 10^5 in 25 cm^2 flasks) and counted at the indicated time points. Cells were then replated at the initial density. The fold increase in cell number was calculated, all given results are based on triplicate experiments. To assess cell death 5 × 10^5 cells were stained with propidium iodide (PI, Sigma, Germany). Following incubation, cells were washed, resuspended in PBS, and analysed by flow cytometry. The fraction of PI-positive cells is reported as dead cell fraction.
(§2) Figure 3. […] Cells were incubated with compound 2 for 48 h and then subjected to PI staining and FACS analysis. PI-positive cell fraction as measure of cell death is reported. (B) Four SCCHN cell lines were incubated with 100 μM of compound 2 and counted on the indicated days. Experiments in triplicates, fold growth shown. (C) EGFR expression of SCCHN cell lines. EGFR high and low as detected by western blot analysis (D) The SCCHN cell lines were incubated with 100 μM of compound 2 for 72 h. Percent PI positive cells are given. Experiments in triplicates.

[1] = test system: EGFR (pEGFR, pERK, p-AKT) in BHY cells; test: Western blot of EGFR downstream targets in BHY cells; format: cell-based; settings: 100 μM
Method: Protein extracts (50 μg per lane) were electrophoretically separated on SDS-PAGE gels, transferred to membranes (Protran, Schleicher & Schuell, Dassel, Germany) and blotted with specific antibodies (actin, aurora A, aurora B: all from Sigma, Munich, Germany; S10-HH3: Millipore, Schwalbach, Germany; EGFR: Santa Cruz, Heidelberg, Germany; pEGFR: Invitrogen, Darmstadt, Germany; pAKT, pERK: both from New England Biolabs, Frankfurt, Germany).
Figure 4. Effects of compound 2 on EGFR and aurora kinases in growing SCCHN cell lines (A) Western blot analysis of EGFR (pEGFR, pERK, p-AKT) and aurora A (p-HH3) downstream target proteins following incubation with 100 μM compound 2 for the indicated time points in BHY and FADU SCCHN cell lines. (B) BHY and CAL cell lines treated for the indicated time points with 200 nM cetuximab. Western blot analysis of EGFR downstream targets. (long exposure and short exposure). […] Western blot analysis of p-HH3 at the indicated time points. Asterisk (*) represents unspecific band.

FADU and BHY cell lines = test: Cell cycle analysis (PI, flow cytometry); format: cell-based; settings: 100 μM, 24 and 48 h; more pronounced in BHY
Method: For analysis of cell cycle distribution, cells were fixed with 70% of ethanol and stained with PI. Flow cytometric analysis of DNA content was performed using PI in the FL2 chanel in linear mode. Cells with less than diploid DNA content were considered dead (sub-G1).
Figure 5. Cell cycle analysis of FADU and BHY cell lines incubated for 24 and 48 h with 100 μM of compound 2. Cell cycle distribution according to PI uptake, shown is the cell fraction subG1 for cell death and in G1, S and G2M phase of the cell cycle. n = 3, * p < .01, ** p < .001.

BHY cells = test: Cell killing, PI staining and FACS, BHY; format: cell-based
Method: as §1, §2

Brc1cccc(Nc2ncnc3[nH]ccc23)c1 [Compound 2, N^4-(3-bromophenyl)-7H-pyrrolo[2,3-d]pyrimidine-4-amine]
IC50 (aurora A kinase (AURKA); 10 µM ATP, triplicate, read-out: AURKA IC50 ± SD): 1.99 ± 0.05 µM
IC50 (aurora A kinase (AURKA); 10 µM ATP/0.2 mg/ml Kemptide, read-out: Aurora A IC50 (dose-response curve, supplement)): 2 µM
Aurora A % Activity Set1 (aurora A kinase (AURKA); Log[nM] 0): 107%
Aurora A % Activity Set2 (aurora A kinase (AURKA); Log[nM] 0): 94%
Aurora A % Activity Set3 (aurora A kinase (AURKA); Log[nM] 0): 94%
Aurora A % Activity Set1 (aurora A kinase (AURKA); Log[nM] 1.0): 109%
Aurora A % Activity Set2 (aurora A kinase (AURKA); Log[nM] 1.0): 97%
Aurora A % Activity Set3 (aurora A kinase (AURKA); Log[nM] 1.0): 96%
Aurora A % Activity Set1 (aurora A kinase (AURKA); Log[nM] 1.5): 109%
Aurora A % Activity Set2 (aurora A kinase (AURKA); Log[nM] 1.5): 96%
Aurora A % Activity Set3 (aurora A kinase (AURKA); Log[nM] 1.5): 101%
Aurora A % Activity Set1 (aurora A kinase (AURKA); Log[nM] 2.0): 102%
Aurora A % Activity Set2 (aurora A kinase (AURKA); Log[nM] 2.0): 97%
Aurora A % Activity Set3 (aurora A kinase (AURKA); Log[nM] 2.0): 105%
Aurora A % Activity Set1 (aurora A kinase (AURKA); Log[nM] 2.5): 94%
Aurora A % Activity Set2 (aurora A kinase (AURKA); Log[nM] 2.5): 88%
Aurora A % Activity Set3 (aurora A kinase (AURKA); Log[nM] 2.5): 95%
Aurora A % Activity Set1 (aurora A kinase (AURKA); Log[nM] 3.0): 70%
Aurora A % Activity Set2 (aurora A kinase (AURKA); Log[nM] 3.0): 66%
Aurora A % Activity Set3 (aurora A kinase (AURKA); Log[nM] 3.0): 69%
Aurora A % Activity Set1 (aurora A kinase (AURKA); Log[nM] 3.5): 35%
Aurora A % Activity Set2 (aurora A kinase (AURKA); Log[nM] 3.5): 34%
Aurora A % Activity Set3 (aurora A kinase (AURKA); Log[nM] 3.5): 34%
Aurora A % Activity Set1 (aurora A kinase (AURKA); Log[nM] 4.0): 16%
Aurora A % Activity Set2 (aurora A kinase (AURKA); Log[nM] 4.0): 14%
Aurora A % Activity Set3 (aurora A kinase (AURKA); Log[nM] 4.0): 14%
Aurora A % Activity Set1 (aurora A kinase (AURKA); Log[nM] 4.5): 6%
Aurora A % Activity Set2 (aurora A kinase (AURKA); Log[nM] 4.5): 5%
Aurora A % Activity Set3 (aurora A kinase (AURKA); Log[nM] 4.5): 5%
Aurora A % Activity Set1 (aurora A kinase (AURKA); Log[nM] 5.0): 5%
Aurora A % Activity Set2 (aurora A kinase (AURKA); Log[nM] 5.0): 5%
Aurora A % Activity Set3 (aurora A kinase (AURKA); Log[nM] 5.0): 5%
Cell killing (PI positive cells) (SAS cells): efficient cell killing
EGFR-mediated phosphorylation steps (pEGFR, pERK, p-AKT) [1]: modified
Cell cycle distribution (FADU and BHY cell lines): cell cycle arrest in G2M
Cell killing (PI positive cells) (BHY cells; 100 µM, 72 h): efficient cell killing
IC50 (BHY cells; 48 h, read-out: IC50 cellular killing (PI-positive fraction)): 150 µM
